# Results: patent publication US5340800A, “Peptide medicaments for the treatment of disease” (priority 1992, dated 1994)
# Like-named read-outs stand apart in the source and are kept apart here. No end group written: not given here.
# Test system: polymorphonuclear leukocyte adhesion to TNF activated endothelial cells
# Assay type: cell-based, human
# Details: for Average % Change of PMN Adhesion to TNF Activated ECs: average over PMN donors (# donors in parentheses); for Percent Change of Adhesion: donor 140 (second line), lower part of Table 4
# Method: Leukocyte adherence can be measured using several assays known in the art, and the preferred assay is described by Charo, et al., 1985, Blood, 65:473. Briefly, the assay consists of labelling leukocytes with an appropriate label, incubating them with endothelial cells and determining the number of leukocytes that adhere. Preferably the cells are labelled with a gamma ray emitting isotope and the preferred labels are ^111 Indium-oxide or ^51 chromium.
# Leukocytes may be isolated from human donors using standard techniques. This generally consists of isolating blood in a physiologically balanced salt solution containing an appropriate anticoagulant, and separating the leukocytes by an appropriate separation step, preferably on Ficoll-Hypaquegradients. Contaminating erythrocytes can be removed by hypotonic lysis. The resulting leukocytes are suspended in a physiologically buffered solution, pH 7.4. The preferred physiological buffered solution is Hank's balanced salt solution that is calcium and magnesium free.
# The isolated leukocytes can then be labelled by incubating them for an appropriate time, generally 15 minutes, with the desired radioisotope at a predetermined concentration. The radiolabelled cells are washed to remove unincorporated label, and then suspended in an appropriate solution to perform the adhesion assay described below.
# Endothelial cells can be prepared from a number of sources and by several techniques known in the art. Preferably they are obtained from human umbilical veins using the procedure of Charo et al., above. Generally, endothelial cells are isolated by enzymatic digestion of the umbilical veins using, preferably, collagenase as described by Jaffe, E. A., et al., 1973, J. of Clin. Invest, 52:2745. The cells are grown on an appropriate tissue culture substratum, preferably gelatine-coated surfaces.
# The endothelial cells may be grown in a variety of tissue culture media containing appropriate supplements such as an appropriate concentration of fetal calf serum, and other supplements/additives routinely utilized by those skilled in this art that are recognized as being favorable for endothelial cells. The endothelial cells may be passaged with a dilute solution of an appropriate protease, and if desired a metal ion chelator. Preferably a solution consisting of 0.05 to 0.25% trypsin and 0.02% EDTA is used. To ensure that the cells are indeed endothelial cells, they are tested by immunofluorescence for Factor VIII antigen, a known endothelial cell marker.
# Leukocyte adherence to endothelial cell monolayers may be determined as follows. Early passage endothelial cells, generally not beyond the fifth passage, are cultured on an appropriate substratum and in a suitable cell culture medium. The culture substratum is preferably pre-coated with an appropriate substance that enhances the adherence of the endothelial cells. Several such substances are known including fibronectin, poly-L-lysine, gelatin and laminin. Fibronectin is preferred. An appropriate culture substratum is a 96 well micro titer plate, and a suitable medium is Medium 199 containing fetal calf serum and other supplements known to be beneficial for the growth and maintenance of endothelial cells that are well known to those skilled in the art. Prior to adding a predetermined number of labelled leukocytes, the endothelial cell monolayer is washed with a physiologically balanced salt solution containing a reduced amount of fetal calf serum, preferably 1%. The preferred solution is RPMI supplemented with 1% fetal calf serum.
# The endothelial cell monolayer containing added leukocytes is incubated for a time sufficient to permit maximum adherence of the leukocytes, and preferably this is conducted at 37° C. for 30 minutes in an appropriate cell culture atmosphere. Generally this would consist of growing and incubating the cells for the assay period in 5% CO2, 95% air, and 95% humidity. […]
Sequence,Average % Change of PMN Adhesion to TNF Activated ECs (10^-4 M),Average % Change of PMN Adhesion to TNF Activated ECs (10^-6 M),Average % Change of PMN Adhesion to TNF Activated ECs (10^-8 M) [%],Average % Change of PMN Adhesion to TNF Activated ECs (10^-5 M),Average % Change of PMN Adhesion to TNF Activated ECs (10^-7 M),other results
"AHKLAENNIQPIFAVT [Peptide 2-16, NH2 --Ala--His--Lys--Leu--Ala--Glu--Asn--Asn--Ile--Gln--Pro--Ile--Phe--Ala--Val--Thr--COOH]",-7%,-1%,-2,–,–,–
"CRIARLEEKVKTLKAQNSELASTANMLREQVAQLKQKVMNHA [WT, NH2 --Cys--Arg--Ile--Ala--Arg--Leu--Glu--Glu--Lys--Val--Lys--Thr--Leu--Lys--Ala--Gln--Asn--Ser--Glu--Leu--Ala--Ser--Thr--Ala--Asn--Met--Leu--Arg--Glu--Gln--Val--Ala--Gln--Leu--Lys--Gln--Lys--Val--Met--Asn--His--Ala--COOH, reference compound]",-54%,+22%,-15,0%,+8%,activity on PMN adhesion at 10^-4 M (in words) (10^-4 M): inhibited polymorphonuclear leukocyte adhesion
"DAPEGGLDAMMQVA [Peptide 5-14, NH2 --Asp--Ala--Pro--Glu--Gly--Gly--Leu--Asp--Ala--Met--Met--Gln--Val--Ala--COOH]",+9%,+7%,0,–,–,–
"DGFHFAGDGKLGAI [Peptide 4-14, NH2 --Asp--Gly--Phe--His--Phe--Ala--Gly--Asp--Gly--Lys--Leu--Gly--Ala--Ile--COOH]",-9%,-4%,-6,+28%,+12%,inhibitory activity in the PMN adhesion assay (in words): little activity
"IGWRNVTRLLVFATD [Peptide 4-15, NH2 --Ile--Gly--Trp--Arg--Asn--Val--Thr--Arg--Leu--Leu--Val--Phe--Ala--Thr--Asp--COOH]",–,–,–,–,–,"concentration of peak inhibitory activity in the PMN adhesion assay: 10^4 to 10^-5 M; inhibitory activity in the PMN adhesion assay (in words): active; Percent Change of Adhesion (10^-5 M (first column (so in the source))): -53%; Percent Change of Adhesion, Average (10^-5 M, average of donors 140, 195, 363, 515, 140): -5 ± 3%; Percent Change of Adhesion (10^-5 M): 0%; Percent Change of Adhesion, Average (10^-6 M, average of donors 140, 195, 363, 515, 140): -6 ± 2%; Percent Change of Adhesion, Average (1000.0): -17 ± 2%; Percent Change of Adhesion, Average (100000.0): -58 ± 7%"
"KTVLPFVNTHPDKLRN [Peptide 6-16, NH2 --Lys--Thr--Val--Leu--Pro--Phe--Val--Asn--Thr--His--Pro--Asp--Lys--Leu--Arg--Asn--COOH]",+6%,-11%,-25,–,–,–
"RIARLEEKVKTLKAENSELASTANMLREEVAQLEQEVMNHA [Peptide 2X, NH2 --Arg--Ile--Ala--Arg--Leu--Glu--Glu--Lys--Val--Lys--Thr--Leu--Lys--Ala--Glu--Asn--Ser--Glu--Leu--Ala--Ser--Thr--Ala--Asn--Met--Leu--Arg--Glu--Glu--Val--Ala--Gln--Leu--Glu--Gln--Glu--Val--Met--Asn--His--Ala--COOH, reference compound]",-38%,–,-20,-1%,-23%,concentration range over which the peptide had activity on PMN adhesion: 10^-4 to 10^-8 M
"RIARLKEKVKTLKAKNSELASTANMLREQVAQLKQKVMNHA [JUN-k, NH2 --Arg--Ile--Ala--Arg--Leu--Lys--Glu--Lys--Val--Lys--Thr--Leu--Lys--Ala--Lys--Asn--Ser--Glu--Leu--Ala--Ser--Thr--Ala--Asn--Met--Leu--Arg--Glu--Gln--Val--Ala--Gln--Leu--Lys--Gln--Lys--Val--Met--Asn--His--Ala--COOH, reference compound]",-25%,+3%,–,-15%,-7%,activity on PMN adhesion at 10^-4 M (in words) (10^-4 M): inhibited polymorphonuclear leukocyte adhesion
"SSNVVHLIKNAYNKLSS [Peptide 3-17, NH2 --Ser--Ser--Asn--Val--Val--His--Leu--Ile--Lys--Asn--Ala--Tyr--Asn--Lys--Leu--Ser--Ser--COOH]",-13%,+13%,-7,+43%,-18%,–
"SYSMLDDLRNVKKLG [Peptide 1-15, NH2 --Ser--Tyr--Ser--Met--Leu--Asp--Asp--Leu--Arg--Asn--Val--Lys--Lys--Leu--Gly--COOH]",-24%,-9%,-4,–,–,–
